These results are taken from ChEMBL document CHEMBL1201862, “PubChem BioAssay data set” (2004).

In one assay the test system is HEK293. Nature of the assay: inhibitors of LMP1-driven NF-kB reporter, dose response, cell-based, HEK293, luciferase, cherry-pick (AID 588343). The assay is classed as functional. The note with it: Homo sapiens.
A short description of assay [1]: growth suppression of PTEN-null colon cells, dose response, cell-based, HCT116 PTEN knockout (AID 1047).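 Further: HCT116 colon tumor cells with PTEN knocked out; cells exposed to compound for 60 hours before readout; potency for loss of cell viability measured by luminescence.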 The assay is classed as functional.
A short description of assay [2]: C. albicans growth with fluconazole, confirmation, fluorescence, retest (AID 2467). Format: functional, cell-based.
Another assay addresses Nonstructural protein 1 (Influenza A virus, UniProt Q194T2). The assay is classed as functional, Influenza A virus (A/California/07/2009(H1N1)).
Assay [3] is described as follows: NIH-3T3 fibroblast cytotoxicity, dose response, cytotoxicity control, cell-based, fluorescence, Alamar Blue, secondary assay (AID 2327).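 Further: NIH-3T3 mouse fibroblasts cultured with fluconazole at 8 µg/mL.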 The assay is classed as functional.
In assay [4] the target is T1, Microphthalmia-associated transcription factor (Homo sapiens, UniProt O75030).
T1 sequence (O75030 whole entry): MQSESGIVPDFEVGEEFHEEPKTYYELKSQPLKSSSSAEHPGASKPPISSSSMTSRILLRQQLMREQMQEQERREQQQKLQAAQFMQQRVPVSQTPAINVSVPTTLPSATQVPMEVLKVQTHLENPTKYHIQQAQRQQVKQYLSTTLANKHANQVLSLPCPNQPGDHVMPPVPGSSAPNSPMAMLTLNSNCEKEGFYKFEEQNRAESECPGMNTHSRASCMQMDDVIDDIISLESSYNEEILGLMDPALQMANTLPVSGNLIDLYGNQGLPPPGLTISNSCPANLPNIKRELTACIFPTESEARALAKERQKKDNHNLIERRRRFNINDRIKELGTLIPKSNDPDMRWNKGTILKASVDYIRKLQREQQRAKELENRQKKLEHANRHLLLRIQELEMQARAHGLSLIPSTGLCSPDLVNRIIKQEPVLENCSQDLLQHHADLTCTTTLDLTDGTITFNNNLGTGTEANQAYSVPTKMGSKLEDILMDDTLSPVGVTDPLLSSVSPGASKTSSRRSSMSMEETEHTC
Nature of the assay: TRPM1 promoter luciferase signal decrease, dose response, MITF inhibitor project, cell-based, SK-MEL-5, cherry-picked, set 3 (AID 493073).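 Further: SK-MEL-5 melanoma cells with luciferase driven by the MITF target TRPM1 promoter.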 Format: functional.

Another assay relates to INS1. The assay can be described thus: beta cell apoptosis inhibitors, cytokine rescue, dose response, luminescence, retest (AID 449756).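 Further: cell death triggered by IL-1 beta plus TNF-alpha plus IFN-gamma mixture; protective hits raise ATP signal compared with cytokine alone wells.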 The assay is classed as functional, cell-based. The settings on record: Rattus norvegicus.
Assay [5] in a line: growth suppression of beta-catenin-knockout colon cells, dose response, cell-based, HCT116, human colon tumor (AID 1045).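 Further: HCT116 colon tumor cells with beta catenin knocked out; cells exposed to compound for 60 hours.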 Format: functional.
Assay [6] concerns the target T2, High affinity choline transporter 1 (Homo sapiens, UniProt Q9GZV3).
T2 sequence (Q9GZV3 whole entry): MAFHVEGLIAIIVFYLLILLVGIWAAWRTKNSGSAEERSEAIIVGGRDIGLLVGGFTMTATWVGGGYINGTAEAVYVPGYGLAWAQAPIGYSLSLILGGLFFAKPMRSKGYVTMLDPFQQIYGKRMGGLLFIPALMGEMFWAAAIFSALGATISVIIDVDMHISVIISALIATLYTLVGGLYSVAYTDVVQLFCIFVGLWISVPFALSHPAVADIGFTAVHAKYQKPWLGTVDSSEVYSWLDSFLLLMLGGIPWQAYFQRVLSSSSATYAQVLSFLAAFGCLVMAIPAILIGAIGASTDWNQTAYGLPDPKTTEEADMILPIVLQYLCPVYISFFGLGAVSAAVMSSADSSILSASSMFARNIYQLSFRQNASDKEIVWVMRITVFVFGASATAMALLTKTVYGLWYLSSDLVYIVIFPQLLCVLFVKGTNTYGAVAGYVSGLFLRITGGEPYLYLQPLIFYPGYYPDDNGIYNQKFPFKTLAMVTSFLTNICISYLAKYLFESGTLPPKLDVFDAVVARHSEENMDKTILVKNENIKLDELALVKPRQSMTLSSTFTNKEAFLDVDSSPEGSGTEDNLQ
The assay can be described thus: CHT inhibitors, dose response, cell-based, 5-point CRC, membrane potential dye (AID 504840). The assay is classed as functional.

A short description of assay [7]: P. falciparum Dd2 growth inhibitors, dose response, SYBR Green, cherry-picked samples (AID 1159567). The assay is classed as functional, cell-based.
A short description of assay [8]: HepG2 cell cytotoxicity, dose response, cytotoxicity control, cherry-picked samples (AID 1159577). The assay is classed as functional, cell-based.
Another assay deals with Large T antigen (Simian virus 40, UniProt P03070). The assay is classed as functional, Betapolyomavirus macacae.
Large T antigen, sequence (P03070 whole entry): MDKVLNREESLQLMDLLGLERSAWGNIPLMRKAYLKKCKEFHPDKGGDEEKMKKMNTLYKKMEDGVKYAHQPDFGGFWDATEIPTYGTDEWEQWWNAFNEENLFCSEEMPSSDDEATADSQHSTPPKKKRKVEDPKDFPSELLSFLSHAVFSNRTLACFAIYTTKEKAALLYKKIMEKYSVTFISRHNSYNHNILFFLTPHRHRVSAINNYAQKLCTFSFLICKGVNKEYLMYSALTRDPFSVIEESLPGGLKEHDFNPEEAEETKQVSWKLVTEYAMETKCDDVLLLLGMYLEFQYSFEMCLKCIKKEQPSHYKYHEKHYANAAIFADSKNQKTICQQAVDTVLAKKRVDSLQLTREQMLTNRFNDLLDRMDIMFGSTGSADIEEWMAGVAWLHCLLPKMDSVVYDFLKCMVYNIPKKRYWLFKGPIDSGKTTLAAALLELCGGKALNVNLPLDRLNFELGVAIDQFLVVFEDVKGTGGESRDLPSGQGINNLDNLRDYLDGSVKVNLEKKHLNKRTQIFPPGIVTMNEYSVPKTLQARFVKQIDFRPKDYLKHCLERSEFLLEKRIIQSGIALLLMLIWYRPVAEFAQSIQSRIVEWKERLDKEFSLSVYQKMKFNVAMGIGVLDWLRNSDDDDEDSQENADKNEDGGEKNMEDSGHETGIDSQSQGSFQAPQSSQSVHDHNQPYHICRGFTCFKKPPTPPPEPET
In a further assay the test system is P388/ADR. The assay can be described thus: cells. The assay is classed as functional. The settings on record: Mus musculus.
The next assay concerns SN12K1. Nature of the assay: cells. Format: functional. The settings on record: Homo sapiens.
Another assay has as its system P388. The assay can be described thus: cells. The assay is classed as functional. The note with it: Mus musculus.
The target of assay [9] is Heat shock protein HSP 90-alpha (Homo sapiens, UniProt P07900). Format: functional, organism-based.

Calls of active or inactive are those of the source.

Nonstructural protein 1, sequence (Q194T2 whole entry): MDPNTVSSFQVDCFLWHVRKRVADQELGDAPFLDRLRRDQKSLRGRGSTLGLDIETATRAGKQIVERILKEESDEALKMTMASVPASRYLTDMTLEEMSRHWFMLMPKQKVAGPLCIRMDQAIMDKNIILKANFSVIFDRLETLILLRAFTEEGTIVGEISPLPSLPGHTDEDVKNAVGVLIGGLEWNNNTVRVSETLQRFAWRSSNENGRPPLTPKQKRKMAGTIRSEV

As for `CCOc1ccc(/C=N/Nc2cc(N3CCOCC3)ncn2)c(O)c1`, in the assay with HEK293, the AC50 (usually the concentration giving half of the maximal activity seen) was 15.5 µM (active). As for `COc1cc(C(=O)Oc2c(CN3CCOCC3)cc(Cl)c3cccnc23)cc(OC)c1OC`, the EC50 (commonly the concentration giving half of the maximal effect) is 2.71 µM (active) in assay [1], 4.15 µM (active) in [2], > 160 µM (inactive) in assay [3] and 2.31 µM (active) in assay [5]. Moreover, at Nonstructural protein 1, the IC50 (commonly the concentration at which inhibition is half-maximal) was 19.9 µM (active). In addition, the concentration at half-maximal activity (AC50) in assay [4] was 7.55 µM (active); with INS1 it was 4.28 µM (active). In the case of `CSc1ccccc1C(=O)N1CCC2(CC1)CC(=O)c1ccccc1O2`, in the assay on HEK293, the AC50 was 22.5 µM (active). Consider `Oc1c(Cl)cc(Cl)cc1/C=N/c1ccc(Br)cc1`, for which the IC50 in assay [6] was 13.2 µM (active). Turning to `COc1ccc2c3c(n(C)c2c1)[C@H](CO)N(C(=O)Nc1ccccc1F)CC31CN(C)C1`, the AC50 in assay [7] is 6.4 µM (active); in assay [8], 18.5 µM (active).

For `Oc1ccc(/C=N/N2CCN(c3ccccn3)CC2)cc1`, the IC50 on Large T antigen is 42.5 µM (active).

For `Cc1c2ccnc(C(N)=O)c2c(C)c2c1[nH]c1ccccc12`, the values for the GI50 in the assay with P388/ADR, in the assay on SN12K1 and with P388 were 12.9 µM (inactive), 5.46 µM (inactive) and 2.9 µM (inactive), respectively. Consider `C/C(=C\COc1ccc2ccc(=O)oc2c1)C1=CC(=O)C(C)(C)O1` [GEIPARVARIN], for which the GI50 (as a rule, the concentration giving 50% growth inhibition) in the assay on P388/ADR is 1.44 µM (inactive); in the assay with SN12K1 it was 3.76 µM (inactive); in the assay with P388 it was 1.9 µM (inactive). Consider `CCS(=O)(=O)N1[C@H](CO)[C@H](c2ccc(C#CCC3CCCC3)cc2)[C@@H]1C#N`, for which the AC50 in [7] is 5.64 µM (active); in assay [8] it was 62.4 µM (active). For the molecule `CCCc1ccc(OCc2ccc(C(=O)NCc3cccnc3)o2)c(OC)c1`, the IC50 in assay [6] is 5.01 µM (active). Consider `O=C(NCCOc1ccccc1)c1ccc2c(c1)OCO2`, for which the AC50 in the assay on HEK293 is 1.62 µM (active). Regarding `O=C(OCC(=O)C12CC3CC(CC(C3)C1)C2)c1ccc(O)cc1`, the AC50 in assay [9] is 1.04 µM (active). Consider `CCCCCCC(Cl)(Cn1ccnc1)c1ccccc1` (configuration not stated), for which the AC50 in assay [9] is 8.5 µM (active). Regarding `COC1OC(=O)[C@H]2O[N+]([O-])=C(C)[C@@H]12` (some centres not stated), the GI50 with P388/ADR, in the assay on SN12K1 and in the assay on P388 was > 100 µM (inactive) in each case.

Consider `CCn1c2ccccc2c2cc(/C=N/NC(=O)c3ccncc3)ccc21`, for which, in the assay with HEK293, the AC50 was 1.46 µM (active). For the molecule `CC(C)NC[C@@H]1[C@@H](c2ccc(C3=CCCCC3)cc2)[C@@H](CO)N1C(=O)CC1CC1`, the AC50 in assay [7] was 6.18 µM (active); in assay [8], 36 µM (active). As for `Cc1nnc(NN/C=C2\C(=O)N(c3cccc(C(F)(F)F)c3)C(=O)c3ccccc32)nc1O`, the IC50 on Large T antigen is 15.2 µM (active).
